Measured values: the NIST ThermoML archive (doi:10.1016/j.jct.2015.10.009)
± gives the expanded uncertainty stated by the source. Blank lines part the entries; values can stand above or below the compound they belong to.

Columns and labels:
[1] = Liquid; for vapor or sublimation pressure: Closed cell (Static) method
[2] = refractive index (Na D-line) (dimensionless); conditions: 298.15 K; 101.33 kPa; Liquid; Standard Abbe refractometry

vapor or sublimation pressure ([1]; 272.78 K): 3476 ± 11 kPa | vapor or sublimation pressure ([1]; 277.83 K): 3958 ± 12 kPa | vapor or sublimation pressure ([1]; 282.87 K): 4487 ± 13 kPa | vapor or sublimation pressure ([1]; 287.92 K): 5069 ± 13 kPa | vapor or sublimation pressure ([1]; 292.95 K): 5705 ± 14 kPa | vapor or sublimation pressure ([1]; 297.99 K): 6404 ± 16 kPa | vapor or sublimation pressure ([1]; 303.03 K): 7176 ± 17 kPa
Structure (SMILES): O=C=O [carbon dioxide]

mass density ([1]; 298.15 K, 101.33 kPa, Vibrating tube method): 655.241 ± 0.26 kg/m3 | refractive index [2]: 1.3724 ± 0.0004
Structure (SMILES): CCCCCC [hexane]

vapor or sublimation pressure ([1]; 267.81 K): 2176 ± 9 kPa | vapor or sublimation pressure ([1]; 272.86 K): 2497 ± 9 kPa | vapor or sublimation pressure ([1]; 277.9 K): 2881 ± 10 kPa | vapor or sublimation pressure ([1]; 282.96 K): 3269 ± 10 kPa | vapor or sublimation pressure ([1]; 287.99 K): 3707 ± 11 kPa | vapor or sublimation pressure ([1]; 292.02 K): 4084 ± 11 kPa | vapor or sublimation pressure ([1]; 293.04 K): 4180 ± 12 kPa | vapor or sublimation pressure ([1]; 297.07 K): 4605 ± 12 kPa
Structure (SMILES): FC(F)F [trifluoromethane]
